# Data published in publication PMC13696528, “Combined Immune‐Peptide Nanofiber with HSP70/AKT/mTOR Axis Blockade Enhances Photothermal Immunotherapy, Inhibiting Tumor Growth and Recurrence” (Advanced Science, 2026).
# Tests used:
# [1] = system: CT26-Luc tumor-bearing mice; test: In vivo recurrence study with HSP70 inhibition; set-up: species or system mouse; conditions: combined with PTIT (PSP@IR-CF3 + NIR), VER-155008 20 mg kg⁻¹ d⁻¹ i.p. 7 days, n = 10, 28 days
# Procedure: CT26-Luc cells were cultured under standard conditions and harvested during the logarithmic growth phase. BALB/c mice were subcutaneously inoculated with CT26-Luc cells to establish tumor-bearing models.
# In the combination group, the HSP70 inhibitor VER-155008 was administered via intraperitoneal injection at a dose of 20 mg kg⁻¹ d⁻¹ for 7 consecutive days beginning immediately after NIR irradiation. Tumor growth was monitored regularly, and mice were followed for 28 days after treatment to evaluate tumor recurrence. Tumor recurrence was defined as the reappearance of measurable tumor growth at the original treatment site following initial tumor regression.
# CT26 cells = test: Colony formation assay after PTIT; format: cell-based, mouse; conditions: PSP@IR-CF3 + NIR plus VER-155008 (0.2 μM) or Rapa (10 nM), 14 days, n = 3
# Procedure: CT26 cells were harvested and prepared as a single-cell suspension. […] Following the indicated treatments, cells were cultured under standard conditions (37 °C, 5% CO₂) for 14 days until visible colonies had formed.
# The culture medium was then removed, and the cells were gently washed with PBS. Colonies were fixed with 4% paraformaldehyde for 10–15 min and stained with crystal violet for 10–20 min. Excess dye was removed by washing with distilled water, and the plates were air-dried. Colonies were quantified using ImageJ software (RRID:SCR_003070).
SMILES,recurrent tumors [1],colony formation and clonogenic recovery after PTIT (CT26 cells)
N#Cc1ccc(COC[C@H]2O[C@@H](n3c(NCc4ccc(Cl)c(Cl)c4)nc4c(N)ncnc43)[C@H](O)[C@@H]2O)cc1 [VER-155008],no recurrent tumors,reduced colony formation and impaired clonogenic recovery
"CO[C@H]1C[C@@H]2CC[C@@H](C)[C@@](O)(O2)C(=O)C(=O)N2CCCC[C@H]2C(=O)O[C@H]([C@H](C)C[C@@H]2CC[C@@H](O)[C@H](OC)C2)CC(=O)[C@H](C)/C=C(\C)[C@@H](O)[C@@H](OC)C(=O)[C@H](C)C[C@H](C)/C=C/C=C/C=C/1C [Rapamycin, rapamycin]",,reduced colony formation and impaired clonogenic recovery
